Tests used:
Cholinesterase [1] = target: T1, Cholinesterase (Equus caballus, UniProt P81908); experiment: Inhibition of equine serum BuChE preincubated for 5 mins followed by substrate addition and measured after 5 mins using S-butyrylthiocholine iodide as substrate by Ellman's method
[2] = Antioxidant activity assessed as DPPH radical scavenging activity incubated for 30 mins by UV-Vis spectrophotometric analysis; format: functional
[3] = Antioxidant activity assessed as trolox equivalent of ABTS radical cation scavenging activity measured after 6 mins by UV spectrophotometeric analysis; format: functional
HT-22 = experiment: Neuroprotection against iodoacetic acid-induced ATP depletion in mouse HT-22 cells assessed as increase in cell viability at 1 uM incubated for 2 hrs in medium with compound and iodoacetic acid followed by medium change with compound and measured after 24 hrs by MTT assay; format: functional; conditions: time 26 hrs
Acetylcholinesterase [4] = target: T2, Acetylcholinesterase (Electrophorus electricus, UniProt O42275); experiment: Inhibition of electric eel AChE preincubated for 5 mins followed by substrate addition using acetylthiocholine iodide as substrate by Ellman's method
[5] = Antioxidant activity assessed as trolox equivalent of ORAC radical scavenging activity by ORAC-FL assay; format: functional
Cholinesterase [6] = target: T1, Cholinesterase; experiment: Inhibition of equine BuChE by Ellman's method
Cholinesterase [7] = target: T3, Cholinesterase (Homo sapiens, UniProt P06276); experiment: Inhibition of human BuchE preincubated for 30 mins followed by substrate addition using butyrylthiocholine iodide as substrate by Ellman's method
Acetylcholinesterase [8] = target: T2, Acetylcholinesterase; experiment: Inhibition of electric eel AChE preincubated for 15 mins followed by substrate addition using acetylthiocholine iodide as substrate by Ellman's method
[9] = Antioxidant activity assessed as DPPH radical scavenging activity at 1 mM incubated for 30 mins by microplate reader method; format: functional
[10] = target: Amyloid-beta precursor protein (Homo sapiens) (UniProt P05067); experiment: Inhibition of amyloid beta (1 to 42) (unknown origin) self aggregation assessed as reduction in fluorescence intensity at 80 uM incubated for 24 hrs by ThT-based fluorimetric assay
Acetylcholinesterase [11] = target: T4, Acetylcholinesterase (Homo sapiens, UniProt P22303); experiment: Inhibition of human AchE preincubated for 6 mins followed by substrate addition and measured upto 3 mins using acetylthiocholine iodide as substrate by Ellman's method
Cholinesterase [12] = target: T3, Cholinesterase; experiment: Inhibition of human BuchE preincubated for 6 mins followed by substrate addition and measured upto 3 mins using acetylthiocholine iodide as substrate by Ellman's method
HepG2 [13] = experiment: Cytotoxicity against human HepG2 cells assessed reduction in cell viability at 1 uM by MTT assay; format: toxicity, cell-based; conditions: hepg2, 1 µM
[14] = Antioxidant activity of compound assessed as trolox equivalent of AAPH radical scavenging activity preincubated for 15 mins followed by AAPH addition and measured for 60 mins by ORAC-FL assay; format: functional; conditions: time 75.0 min
[15] = target: Amyloid-beta precursor protein (Homo sapiens) (UniProt P05067); experiment: Inhibition of amyloid beta (1 to 42) (unknown origin) self aggregation assessed as reduction in fluorescence intensity at 50 uM incubated for 24 hrs by ThT-based fluorimetric assay
Acetylcholinesterase [16] = target: T4, Acetylcholinesterase; experiment: Inhibition of human AchE preincubated for 20 mins followed by substrate addition using acetylthiocholine iodide as substrate by Ellman's method
HepG2 [17] = experiment: Cytotoxicity against human HepG2 cells assessed reduction in cell viability at 1000 uM by MTT assay; format: toxicity, cell-based; conditions: hepg2, 1000 µM
SH-SY5Y = experiment: Neuroprotective activity against amyloid beta (1 to 42)-induced cytotoxicity in human SH-SY5Y cells assessed as increase in cell viability at 10 uM incubated for 24 hrs by MTT assay; format: functional
[18] = target: Amyloid-beta precursor protein (Homo sapiens) (UniProt P05067); experiment: Inhibition of self-induced amyloid beta (1 to 40) (unknown origin) aggregation at 20 uM incubated for 48 hrs by ThT-based fluorimetric assay
[19] = Antioxidant activity assessed as DPPH radical scavenging activity at 200 uM incubated for 2 hrs in dark by spectrophotometric analysis; format: functional
[20] = Antioxidant activity of compound assessed as trolox equivalent of AAPH radical scavenging activity preincubated for 15 mins followed by AAPH addition and measured every 1 min for 60 mins by ORAC-FL assay; format: functional; conditions: time 75.0 min

T3 sequence (P06276 whole entry): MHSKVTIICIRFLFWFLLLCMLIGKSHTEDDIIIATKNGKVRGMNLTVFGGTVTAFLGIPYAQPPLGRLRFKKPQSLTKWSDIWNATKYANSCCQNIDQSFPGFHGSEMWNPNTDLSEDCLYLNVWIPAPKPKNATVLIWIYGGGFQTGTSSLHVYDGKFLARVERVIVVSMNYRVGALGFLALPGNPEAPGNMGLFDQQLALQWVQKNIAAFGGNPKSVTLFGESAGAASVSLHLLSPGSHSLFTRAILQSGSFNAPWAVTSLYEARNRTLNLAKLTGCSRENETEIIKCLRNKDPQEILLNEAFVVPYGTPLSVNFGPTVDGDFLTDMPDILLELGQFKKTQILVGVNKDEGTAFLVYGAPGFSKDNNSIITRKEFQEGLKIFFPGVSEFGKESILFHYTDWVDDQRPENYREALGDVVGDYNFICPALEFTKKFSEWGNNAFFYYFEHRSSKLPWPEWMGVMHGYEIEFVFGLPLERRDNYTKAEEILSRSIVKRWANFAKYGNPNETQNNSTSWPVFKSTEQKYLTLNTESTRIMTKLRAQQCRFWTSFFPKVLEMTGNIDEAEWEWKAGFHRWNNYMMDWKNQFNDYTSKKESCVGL
Chain of Amyloid-beta precursor protein (Homo sapiens) (P05067 whole entry): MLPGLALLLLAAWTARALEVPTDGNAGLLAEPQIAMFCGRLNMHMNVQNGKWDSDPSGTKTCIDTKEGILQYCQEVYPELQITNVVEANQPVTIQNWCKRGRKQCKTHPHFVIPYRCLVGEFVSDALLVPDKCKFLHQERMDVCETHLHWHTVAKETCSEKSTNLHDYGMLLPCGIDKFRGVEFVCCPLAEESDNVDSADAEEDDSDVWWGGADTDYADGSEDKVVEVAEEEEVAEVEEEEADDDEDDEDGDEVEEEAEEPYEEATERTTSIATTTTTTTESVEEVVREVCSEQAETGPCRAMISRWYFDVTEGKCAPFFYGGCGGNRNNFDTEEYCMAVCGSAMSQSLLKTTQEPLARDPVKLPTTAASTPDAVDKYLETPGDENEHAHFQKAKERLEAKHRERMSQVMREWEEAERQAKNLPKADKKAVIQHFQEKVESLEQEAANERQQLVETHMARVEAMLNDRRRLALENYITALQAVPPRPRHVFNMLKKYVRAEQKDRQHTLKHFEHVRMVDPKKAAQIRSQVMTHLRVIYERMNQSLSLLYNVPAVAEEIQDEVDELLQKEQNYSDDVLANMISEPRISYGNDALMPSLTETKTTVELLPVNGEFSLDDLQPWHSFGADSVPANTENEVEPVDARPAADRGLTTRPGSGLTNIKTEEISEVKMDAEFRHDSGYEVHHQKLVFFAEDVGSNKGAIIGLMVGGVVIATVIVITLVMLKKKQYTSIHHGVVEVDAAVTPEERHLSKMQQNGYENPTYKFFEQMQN
T4 sequence (P22303 whole entry): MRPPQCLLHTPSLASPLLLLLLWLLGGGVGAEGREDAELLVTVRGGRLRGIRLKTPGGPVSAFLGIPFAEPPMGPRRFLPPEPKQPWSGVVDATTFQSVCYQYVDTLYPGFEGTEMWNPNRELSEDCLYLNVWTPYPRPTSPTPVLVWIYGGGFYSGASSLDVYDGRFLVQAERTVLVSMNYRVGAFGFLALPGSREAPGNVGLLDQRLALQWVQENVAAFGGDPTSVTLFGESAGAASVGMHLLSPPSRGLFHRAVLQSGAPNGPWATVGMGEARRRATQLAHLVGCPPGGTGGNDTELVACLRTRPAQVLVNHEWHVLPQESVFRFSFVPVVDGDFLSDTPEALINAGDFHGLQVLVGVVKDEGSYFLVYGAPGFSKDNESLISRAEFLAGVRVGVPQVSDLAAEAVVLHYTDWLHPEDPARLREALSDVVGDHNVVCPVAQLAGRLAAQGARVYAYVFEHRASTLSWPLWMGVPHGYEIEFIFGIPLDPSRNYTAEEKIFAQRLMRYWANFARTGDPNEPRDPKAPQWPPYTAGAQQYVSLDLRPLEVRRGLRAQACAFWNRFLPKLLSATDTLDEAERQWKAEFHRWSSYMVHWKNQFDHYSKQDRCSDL
T2 sequence (O42275 whole entry): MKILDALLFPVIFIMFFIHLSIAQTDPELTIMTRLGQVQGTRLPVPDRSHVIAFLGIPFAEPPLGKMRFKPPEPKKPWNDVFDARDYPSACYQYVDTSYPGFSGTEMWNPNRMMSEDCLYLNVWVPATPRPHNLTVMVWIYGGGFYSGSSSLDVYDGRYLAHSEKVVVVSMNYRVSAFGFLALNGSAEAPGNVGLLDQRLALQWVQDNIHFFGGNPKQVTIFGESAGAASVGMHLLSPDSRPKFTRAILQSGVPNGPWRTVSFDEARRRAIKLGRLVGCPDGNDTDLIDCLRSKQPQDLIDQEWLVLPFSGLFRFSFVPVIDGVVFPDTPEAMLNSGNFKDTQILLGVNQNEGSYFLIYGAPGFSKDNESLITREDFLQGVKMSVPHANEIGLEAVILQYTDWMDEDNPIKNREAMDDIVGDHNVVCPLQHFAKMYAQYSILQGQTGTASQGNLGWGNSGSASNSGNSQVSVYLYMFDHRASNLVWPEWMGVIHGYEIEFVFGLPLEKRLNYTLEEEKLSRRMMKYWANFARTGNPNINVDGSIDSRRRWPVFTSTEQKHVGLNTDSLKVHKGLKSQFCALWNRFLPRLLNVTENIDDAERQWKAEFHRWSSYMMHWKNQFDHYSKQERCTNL
T1 sequence (P81908 whole entry): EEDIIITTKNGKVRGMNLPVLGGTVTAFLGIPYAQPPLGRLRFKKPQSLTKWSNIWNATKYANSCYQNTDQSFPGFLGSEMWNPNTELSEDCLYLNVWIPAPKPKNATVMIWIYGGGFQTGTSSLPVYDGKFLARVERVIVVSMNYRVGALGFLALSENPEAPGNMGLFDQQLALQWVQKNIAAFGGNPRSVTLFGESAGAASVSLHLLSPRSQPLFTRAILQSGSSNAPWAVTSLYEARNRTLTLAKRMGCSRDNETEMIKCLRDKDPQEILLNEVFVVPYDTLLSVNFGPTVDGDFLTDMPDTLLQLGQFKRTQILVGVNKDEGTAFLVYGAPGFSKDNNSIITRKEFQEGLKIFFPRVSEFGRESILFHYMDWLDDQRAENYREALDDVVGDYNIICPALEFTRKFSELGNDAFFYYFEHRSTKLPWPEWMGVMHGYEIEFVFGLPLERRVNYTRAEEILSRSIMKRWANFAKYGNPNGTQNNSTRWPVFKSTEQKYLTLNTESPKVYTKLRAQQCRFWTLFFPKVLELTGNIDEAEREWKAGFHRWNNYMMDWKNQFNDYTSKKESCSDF

`O=C(/C=C/c1cc(O)c(O)c(O)c1)NCCCCCC[P+](c1ccccc1)(c1ccccc1)c1ccccc1` gave an IC50 (Cholinesterase [1]) of 110 nM.

`COc1cc(/C=C/C(=O)NCCC2CCN(Cc3ccccc3)CC2)ccc1O` showed an IC50 [2] of 34100 nM and an Activity [3] of 1.39 equiv.

`O=C(/C=C/c1ccccc1)Oc1ccc2c(c1)O[C@H](c1ccc(O)c(O)c1)[C@@H](O)C2=O` gave an Activity (HT-22) of 40%.

`COc1cc(/C=C/C(=O)NCCC2CCN(Cc3ccccc3)CC2)cc(OC)c1O` showed an IC50 [2] of 24900 nM, an Activity [3] of 1.78 equiv and an IC50 (Acetylcholinesterase [4]) of 390 nM.

In the case of `COc1ccc2[nH]cc(CCNC(=O)CN(CCC3CCN(Cc4ccccc4)CC3)C(=O)/C=C/c3ccc(O)c(OC)c3)c2c1`, the Activity [5] is reported as 8.71 equiv and the IC50 (Cholinesterase [6]) is reported as 10.4 nM.

In the case of `CCNC(=O)O[C@@H]1C[C@H]2O[C@@H](OC(=O)CCCCC3CCSS3)C[C@H]2O1` (stereo not given in full), the Activity [5] is reported as 0.163 equiv.

In the case of `CCCCNC(=O)O[C@@H]1C[C@H]2O[C@@H](OC(=O)/C=C/c3ccc(O)c(OC)c3)C[C@H]2O1`, the IC50 (Cholinesterase [7]) is reported as 430 nM.

`O=C1c2c(O)cc(O)cc2O[C@H](c2ccc(O)c(O)c2)[C@H]1O` [(+)-TAXIFOLIN] gave an Activity (HT-22) of 10%.

For `COc1ccc(/C=C/C(=O)NCCC2CCN(Cc3ccccc3)CC2)cc1O`, the IC50 [2] was 764000 nM.

`O=C(/C=C/CCc1ccc2c(c1)OCO2)NCCCNc1c2c(nc3ccccc13)CCCC2` gave an IC50 (Acetylcholinesterase [8]) of 130 nM, an Activity [9] of 20.8% and an inhibition [10] of 72.2%.

`COc1cc(/C=C/C(=O)O[C@H]2C[C@H]3O[C@H](OC(=O)NCc4ccccc4)C[C@H]3O2)ccc1O` showed an Activity [5] of 0.635 equiv.

With `COc1cc(/C=C/C(=O)OCCCCCN(C)Cc2cccc(OC(=O)N(C)C)c2)ccc1O` the IC50 (Acetylcholinesterase [11]) was 19.7 nM, the IC50 (Cholinesterase [12]) was 0.59 nM and the Activity [3] was 1.26 µM.

`COc1ccc2nc3c(c(NCCCCCCCCN(CC(=O)Nc4ccc5ccccc5c4)C(=O)/C=C/c4ccc(O)c(OC)c4)c2c1)CCCC3` showed an Activity (HepG2 [13]) of 98.8%, an Activity [14] of 4.29 equiv and an inhibition [15] of 65.6%. The IC50 (Acetylcholinesterase [16]) was 22.2 nM, the Activity (HepG2 [17]) was 59.4% and the Activity (SH-SY5Y) was 95.1%.

Work on `CCCCNC(=O)O[C@@H]1C[C@H]2O[C@@H](OC(=O)CCCCC3CCSS3)C[C@H]2O1` (stereo not given in full) yielded an IC50 (Cholinesterase [7]) of 170 nM.

Molecule `O=C(NCc1ccccc1)C(c1cnc2ccccc2c1)N(Cc1ccccc1)C(=O)/C=C/c1ccc(O)c(O)c1` (stereo not given) has an inhibition [18] of 66.4%, an Activity [19] of 89.1% and an Activity [20] of 5.48 equiv.

Reference: ChEMBL document CHEMBL5096162, “A review on ferulic acid and analogs based scaffolds for the management of Alzheimer's disease” (Eur J Med Chem, 2021)
